Test results: patent publication EP4603105A1, “PHARMACEUTICAL COMPOSITION CONTAINING CYCLIC COMPOUND HAVING SELECTIVE KRAS INHIBITORY EFFECT AGAINST HRAS AND NRAS” (CHUGAI SEIYAKU KABUSHIKI KAISHA, priority 2022, dated 2024)
Where two headings read alike, the source gives them in different places.

Legend:
[1] = tested on: human lung cancer strain NCI-H441; test: NCI-H441 cell proliferation inhibitory activity (CellTiter-Glo, 4 days); format: cell-based; settings: read-out: NCl-H441 IC50
Procedure: A test compound was dispensed into a U-bottom 384-well plate as 40 nL serially diluted dimethyl sulfoxide solutions using a liquid handler Echo (LABCYTE). […] This cell suspension was dispensed in an amount of 40 µL per well into a plate containing the test compound, and cultured at 37°C in a 5% carbon dioxide gas incubator. Four days later, 20 µL of CellTiter-Glo (registered trademark) (Promega) was added to each well and […] was measured. […]

HRAS wild-type protein = HRAS wild-type protein (Homo sapiens, UniProt P01112); test: Binding to HRAS by surface plasmon resonance (SPR), KD and KD ratio to KRAS
How it was run: (§1)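 Running buffer contained 10 µM GDP and 10 mM MgCl2 to keep RAS in the GDP state, with 4% DMSO at pH 7.4. Compounds were flowed at 100 µL/min in 75 s steps of rising concentration over captured biotin-Avi RAS at 30°C. Sensorgrams were fitted 1:1 for KD.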

[2] = target: GDP-bound KRAS wild-type protein (Homo sapiens, UniProt P01116); test: Binding to KRAS by surface plasmon resonance (SPR), dissociation constant KD; settings: 1:1 binding model
How it was run: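 Each cycle, GDP-bound biotin-Avi RAS was captured (~100–300 RU), compound concentrations were injected low to high for 75 s each at 100 µL/min, then the chip was regenerated. Buffer: HBS pH 7.4, 10 mM MgCl2, 10 µM GDP, 1 mM DTT, 4% DMSO; 30°C. KD from a 1:1 binding model.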

[3] = target: GDP-bound NRAS wild-type protein (Homo sapiens, UniProt P01111); test: Binding to NRAS by surface plasmon resonance (SPR), KD and KD ratio to KRAS
How it was run: as §1

[4] = 50% proliferation inhibitory concentration, four days
[5] = ratio of KD with respect to HRAS wild-type protein to KD with respect to KRAS
[6] = ratio of KD with respect to GDP-bound NRAS wild-type protein to KD with respect to KRAS
[7] = ratio of KD for HRAS wild-type protein to KD for KRAS
[8] = ratio of KD for GDP-bound NRAS wild-type protein to KD for KRAS

GDP-bound NRAS wild-type protein, sequence (P01111 whole entry): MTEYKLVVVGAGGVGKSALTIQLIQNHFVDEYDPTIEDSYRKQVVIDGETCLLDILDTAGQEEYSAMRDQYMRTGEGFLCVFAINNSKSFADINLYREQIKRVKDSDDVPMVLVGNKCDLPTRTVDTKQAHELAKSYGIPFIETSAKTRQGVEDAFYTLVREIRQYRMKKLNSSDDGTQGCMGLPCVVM
GDP-bound KRAS wild-type protein, sequence (P01116 1-188 isoform P01116-2): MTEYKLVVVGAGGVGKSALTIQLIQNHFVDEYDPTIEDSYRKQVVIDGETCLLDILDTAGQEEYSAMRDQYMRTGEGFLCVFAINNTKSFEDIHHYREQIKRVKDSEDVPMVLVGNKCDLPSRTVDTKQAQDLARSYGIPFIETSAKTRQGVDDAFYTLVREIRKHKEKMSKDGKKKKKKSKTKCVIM
HRAS wild-type protein, sequence (P01112 whole entry): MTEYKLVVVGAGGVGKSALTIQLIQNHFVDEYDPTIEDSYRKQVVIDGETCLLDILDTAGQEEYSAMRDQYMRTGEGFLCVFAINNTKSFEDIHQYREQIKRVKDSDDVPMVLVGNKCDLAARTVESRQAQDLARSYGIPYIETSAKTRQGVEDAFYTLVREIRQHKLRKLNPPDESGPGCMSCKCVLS

Row | Structure (SMILES) | IC50 [1, 4] | HRAS /KRAS (HRAS wild-type protein; [5]) | Kd ([2]; Single Cycle Kinetics) | NRAS /KRAS [3, 6] | IC50 ([1]; NCI-H441 cells, 4 days) | HRAS /KRAS (HRAS wild-type protein; [7]) | NRAS /KRAS [3, 8] | Kd [2]
1 | CC[C@H](C)[C@@H]1NC(=O)[C@H](CC)N(C)C(=O)C[C@@H](C(=O)N(C)C)N(C)C(=O)[C@H](C2CCCC2)N(C)C(=O)C2(CCC2)NC(=O)[C@@H]2CC(F)(F)CN2C(=O)[C@H](CCc2cc(F)c(C(F)(F)F)c(F)c2)NC(=O)CN(C)C(=O)[C@H](Cc2ccc(C(F)(F)F)cc2)N2CC/C=C\C[C@@H](C2=O)N(C)C(=O)CN(C)C1=O [PP1129] | 10.2 nM | B (a compound having 3 or more and less than 10 is denoted as B) | 0.056 nM | A (a compound having 10 or more and less than 20 is denoted as A) |  |  |  | 
2 | CC[C@H](C)[C@@H]1NC(=O)[C@H](CC)N(C)C(=O)C[C@@H](C(=O)N(C)C)N(C)C(=O)[C@H](C2CCCC2)N(C)C(=O)C2(CCC2)NC(=O)[C@@H]2C[C@@H](OC)CN2C(=O)[C@H](CCc2cc(F)c(C(F)(F)F)c(F)c2)NC(=O)CN(C)C(=O)[C@H](Cc2ccc(C(F)(F)F)cc2)N2CC/C=C\C[C@@H](C2=O)N(C)C(=O)CN(C)C1=O [PP1130] | 19.6 nM | B (a compound having 3 or more and less than 10 is denoted as B) | 0.035 nM | A (a compound having 10 or more and less than 20 is denoted as A) |  |  |  | 
3 | CC[C@H](C)[C@@H]1NC(=O)[C@H](CC)N(C)C(=O)C[C@@H](C(=O)N(C)C)N(C)C(=O)[C@H](C2CCCC2)N(C)C(=O)C2(CCC2)NC(=O)[C@@H]2C[C@H](F)CN2C(=O)[C@H](CCc2cc(F)c(C(F)(F)F)c(F)c2)NC(=O)CN(C)C(=O)[C@H](Cc2ccc(C(F)(F)F)cc2)N2CC/C=C\C[C@@H](C2=O)N(C)C(=O)CN(C)C1=O [PP1132] | 86.8 nM | B (a compound having 3 or more and less than 10 is denoted as B) | 0.066 nM | A (a compound having 10 or more and less than 20 is denoted as A) |  |  |  | 
4 | CC[C@H](C)[C@@H]1NC(=O)[C@H](CC)N(C)C(=O)C[C@@H](C(=O)N(C)C)N(C)C(=O)[C@H](C2CCCC2)N(C)C(=O)C2(CCC2)NC(=O)[C@@H]2C[C@@H](C(F)(F)F)CN2C(=O)[C@H](CCc2cc(F)c(C(F)(F)F)c(F)c2)NC(=O)CN(C)C(=O)[C@H](Cc2ccc(C(F)(F)F)cc2)N2CC/C=C\C[C@@H](C2=O)N(C)C(=O)CN(C)C1=O [PP1133] | 16.5 nM | A (a compound having 10 or more and less than 20 is denoted as A) | 0.05 nM | A (a compound having 10 or more and less than 20 is denoted as A) |  |  |  | 
5 | CC[C@H](C)[C@@H]1NC(=O)[C@H](CC)N(C)C(=O)C[C@@H](C(=O)N(C)C)N(C)C(=O)[C@H](C2CCCC2)N(C)C(=O)C2(CCC2)NC(=O)[C@@H]2C[C@H](C)CN2C(=O)[C@H](CCc2cc(F)c(C(F)(F)F)c(F)c2)NC(=O)CN(C)C(=O)[C@H](Cc2ccc(C(F)(F)F)cc2)N2CC/C=C\C[C@@H](C2=O)N(C)C(=O)CN(C)C1=O [PP1134] | 20 nM | B (a compound having 3 or more and less than 10 is denoted as B) | 0.06 nM | A (a compound having 10 or more and less than 20 is denoted as A) |  |  |  | 
6 | CC[C@H](C)[C@@H]1NC(=O)[C@H](CC)N(C)C(=O)C[C@@H](C(=O)N(C)C)N(C)C(=O)[C@H](C2CCCC2)N(C)C(=O)C2(CCC2)NC(=O)[C@@H]2CCCN2C(=O)[C@H](CCc2cc(F)c(C(F)(F)F)c(F)c2)NC(=O)CN(C)C(=O)[C@H](Cc2ccc(C(F)(F)F)cc2)N2CC/C=C\C[C@@H](C2=O)N(C)C(=O)CN(C)C1=O [PP1135] | 43.9 nM | A (a compound having 10 or more and less than 20 is denoted as A) | 0.094 nM | A (a compound having 10 or more and less than 20 is denoted as A) |  |  |  | 
7 | CC[C@H](C)[C@@H]1NC(=O)[C@H](CC)N(C)C(=O)C[C@@H](C(=O)N(C)C)N(C)C(=O)[C@H](C2CCCC2)N(C)C(=O)C2(CCC2)NC(=O)[C@@H]2CCN2C(=O)[C@H](CCc2cc(F)c(C(F)(F)F)c(F)c2)NC(=O)CN(C)C(=O)[C@H](Cc2ccc(C(F)(F)F)cc2)N2CC/C=C\C[C@@H](C2=O)N(C)C(=O)CN(C)C1=O [PP1139] | 297 nM | A (a compound having 10 or more and less than 20 is denoted as A) | 0.43 nM | A (a compound having 10 or more and less than 20 is denoted as A) |  |  |  | 
8 | CC[C@H](C)[C@@H]1NC(=O)[C@H](CC)N(C)C(=O)C[C@@H](C(=O)N(C)C)N(C)C(=O)[C@H](C2CCCC2)N(C)C(=O)C2(CCC2)NC(=O)[C@H](C)NC(=O)[C@H](CCc2cc(F)c(C(F)(F)F)c(F)c2)NC(=O)CN(C)C(=O)[C@H](Cc2ccc(C(F)(F)F)cc2)N2CC/C=C\C[C@@H](C2=O)N(C)C(=O)CN(C)C1=O [PP1140] | 1780 nM | A (a compound having 10 or more and less than 20 is denoted as A) | 0.15 nM | A (a compound having 10 or more and less than 20 is denoted as A) |  |  |  | 
9 | CC[C@H](C)[C@@H]1NC(=O)[C@H](CC)N(C)C(=O)C[C@@H](C(=O)N(C)C)N(C)C(=O)[C@H](C2CCCC2)N(C)C(=O)C2(CCC2)NC(=O)CN(CC)C(=O)[C@H](CCc2cc(F)c(C(F)(F)F)c(F)c2)NC(=O)CN(C)C(=O)[C@H](Cc2ccc(C(F)(F)F)cc2)N2CC/C=C\C[C@@H](C2=O)N(C)C(=O)CN(C)C1=O [PP1143] | 75.3 nM | A (a compound having 10 or more and less than 20 is denoted as A) | 0.17 nM | A (a compound having 10 or more and less than 20 is denoted as A) |  |  |  | 
10 | CCCCCC[C@H]1C(=O)N[C@@H]([C@@H](C)CC)C(=O)N(C)CC(=O)N(C)[C@H]2C/C=C\CCN(C2=O)[C@@H](Cc2ccc(C(F)(F)F)cc2)C(=O)N(C)CC(=O)N[C@@H](CCc2cc(F)c(C(F)(F)F)c(F)c2)C(=O)N2C[C@H](OCC)C[C@H]2C(=O)NC2(CCC2)C(=O)N(C)[C@@H](C(CC)CC)C(=O)N(C)[C@H](C(=O)N(C)C)CC(=O)N1C [PP1202] | 24.1 nM |  | 0.4 nM |  |  |  |  | 
11 | CC[C@H](C)[C@@H]1NC(=O)[C@H](CC)N(C)C(=O)C[C@@H](C(=O)N2CCOCC2)N(C)C(=O)[C@H](C2CCCC2)N(C)C(=O)C2(CCCC2)NC(=O)[C@@H]2CCCN2C(=O)[C@H](CCc2cc(F)c(C(F)(F)F)c(F)c2)NC(=O)CN(C)C(=O)[C@H](Cc2ccc(C(F)(F)F)cc2)N2CC(C)[C@@H](C)C[C@@H](C2=O)N(C)C(=O)CN(C)C1=O (some centres unmarked) [PP1350] | 20.1 nM | B (a compound having 3 or more and less than 10 is denoted as B) |  | B (a compound having 3 or more and less than 10 is denoted as B) |  |  |  | 
12 | CCCOC[C@H]1C(=O)N[C@@H]([C@@H](C)OCC)C(=O)N(C)CC(=O)N(C)[C@H]2C/C=C\CCN(C2=O)[C@@H](Cc2ccc(C)cc2)C(=O)N(C)CC(=O)N[C@@H](CCc2ccc(C(F)(F)F)c(OC)c2)C(=O)N2C[C@@H](C)C[C@H]2C(=O)NC2(CC(C)(C)C2)C(=O)N(C)[C@@H](C2CCCC2)C(=O)N(C)[C@H](C(=O)N(C)CC)CC(=O)N1C [PP2423] |  |  |  |  | 71.9 nM | A (a compound having 10 or more and less than 20 is denoted as A) | A (a compound having 10 or more and less than 20 is denoted as A) | 
13 | CCC(CC)[C@H]1C(=O)N(C)[C@H](C(=O)N(C)C)CC(=O)N(C)[C@@H](COC)C(=O)N[C@@H]([C@@H](C)CC)C(=O)N(C2CC2)CC(=O)N(C)[C@H]2C/C=C\CCN(C2=O)[C@@H](CC2CCCCC2)C(=O)N(C)CC(=O)N[C@@H](CCc2ccc(Cl)c(Cl)c2)C(=O)N2C[C@H](OC(C)C)C[C@H]2C(=O)NC2(CC(C)(C)C2)C(=O)N1C [PP2517] |  |  |  |  | 562 nM | A (a compound having 10 or more and less than 20 is denoted as A) |  | 9.3 nM
14 | CC[C@H](C)[C@@H]1NC(=O)[C@H](COC)N(C)C(=O)C[C@@H](C(=O)N(C)C)N(C)C(=O)[C@H](C2CCCC2)N(C)C(=O)C2(CC(C)(C)C2)NC(=O)[C@@H]2C[C@@H](OC3CCCC3)CN2C(=O)[C@H](CCc2cc(F)c(C(F)(F)F)c(F)c2)NC(=O)CN(C)C(=O)[C@H](Cc2ccc(C)cc2)N2CC/C=C\C[C@@H](C2=O)N(C)C(=O)CN(C2CC2)C1=O [PP2626] |  |  |  |  | 33.4 nM | A (a compound having 10 or more and less than 20 is denoted as A) | A (a compound having 10 or more and less than 20 is denoted as A) | 
